How the values were obtained:
Format in all cases: functional, cell-based, Oocyte
[1] = molecular target: T1, Solute carrier organic anion transporter family member 1A2 (OATP1A2) (Homo sapiens, UniProt P46721); assay: TP_TRANSPORTER: inhibition of DHEAS uptake (DHEAS: 5 uM, TCDC: 100 uM) in Xenopus laevis oocytes; conditions: Xenopus laevis oocytes expressing OATP1A2 (SLCO1A2), probe DHEAS (5 uM)
T1 sequence (P46721 whole entry): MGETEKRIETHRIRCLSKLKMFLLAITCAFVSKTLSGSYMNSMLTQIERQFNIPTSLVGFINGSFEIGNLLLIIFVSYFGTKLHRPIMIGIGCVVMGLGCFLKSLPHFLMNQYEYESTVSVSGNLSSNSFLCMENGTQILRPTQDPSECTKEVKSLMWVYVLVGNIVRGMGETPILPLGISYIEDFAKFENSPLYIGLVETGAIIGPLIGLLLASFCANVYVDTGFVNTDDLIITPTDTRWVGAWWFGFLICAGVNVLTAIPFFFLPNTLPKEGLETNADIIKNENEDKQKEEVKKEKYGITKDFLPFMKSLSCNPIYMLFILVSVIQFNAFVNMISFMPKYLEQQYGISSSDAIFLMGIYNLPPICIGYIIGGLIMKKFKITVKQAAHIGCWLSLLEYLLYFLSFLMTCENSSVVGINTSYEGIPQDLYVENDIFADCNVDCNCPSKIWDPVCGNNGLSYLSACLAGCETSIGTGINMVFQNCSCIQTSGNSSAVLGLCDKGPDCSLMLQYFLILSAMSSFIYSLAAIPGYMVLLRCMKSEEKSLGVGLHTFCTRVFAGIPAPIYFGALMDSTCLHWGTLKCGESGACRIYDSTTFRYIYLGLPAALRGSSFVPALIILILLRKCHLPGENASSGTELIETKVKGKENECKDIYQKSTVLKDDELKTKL

[2] = molecular target: T1, Solute carrier organic anion transporter family member 1A2 (OATP1A2); assay: TP_TRANSPORTER: inhibition of DHEAS uptake (DHEAS: 5 uM, TUDC: 100 uM) in Xenopus laevis oocytes; conditions: Xenopus laevis oocytes expressing OATP1A2 (SLCO1A2), probe DHEAS (5 uM)
[3] = molecular target: T1, Solute carrier organic anion transporter family member 1A2 (OATP1A2); assay: TP_TRANSPORTER: inhibition of DHEAS uptake (DHEAS: 5 uM, E1S: 100 uM) in Xenopus laevis oocytes; conditions: Xenopus laevis oocytes expressing OATP1A2 (SLCO1A2), probe DHEAS (5 uM)
[4] = molecular target: T1, Solute carrier organic anion transporter family member 1A2 (OATP1A2); assay: TP_TRANSPORTER: inhibition of DHEAS uptake (DHEAS: 5 uM, Dexamethasone: 100 uM) in Xenopus laevis oocytes; conditions: Xenopus laevis oocytes expressing OATP1A2 (SLCO1A2), probe DHEAS (5 uM)
[5] = molecular target: T1, Solute carrier organic anion transporter family member 1A2 (OATP1A2); assay: TP_TRANSPORTER: uptake in Xenopus laevis oocytes; conditions: Xenopus laevis oocytes expressing OATP1A2 (SLCO1A2)
[6] = molecular target: T1, Solute carrier organic anion transporter family member 1A2 (OATP1A2); assay: TP_TRANSPORTER: inhibition of DHEAS uptake (DHEAS: 5 uM, Estradiol-3-sulfate: 100 uM) in Xenopus laevis oocytes; conditions: Xenopus laevis oocytes expressing OATP1A2 (SLCO1A2), probe DHEAS (5 uM)

C[C@H](CCC(=O)NCCS(=O)(=O)O)[C@H]1CC[C@H]2[C@@H]3[C@H](O)C[C@@H]4C[C@H](O)CC[C@]4(C)[C@H]3CC[C@]12C [TAUROCHENODEOXYCHOLATE]
inhibition at 100 µM [1]: 75.2%

C[C@H](CCC(=O)NCCS(=O)(=O)O)[C@H]1CC[C@H]2[C@@H]3[C@@H](O)C[C@@H]4C[C@H](O)CC[C@]4(C)[C@H]3CC[C@]12C [TAURURSODIOL]
inhibition at 100 µM [2]: 85.7%

C[C@]12CC[C@@H]3c4ccc(OS(=O)(=O)O)cc4CC[C@H]3[C@@H]1CCC2=O [ESTRONE SULFURIC ACID]
inhibition at 100 µM [3]: 82.3%

C[C@@H]1C[C@H]2[C@@H]3CCC4=CC(=O)C=C[C@]4(C)[C@@]3(F)[C@@H](O)C[C@]2(C)[C@@]1(O)C(=O)CO [DEXAMETHASONE]
inhibition at 100 µM [4]: 97.3%

C[C@]12CC[C@H](OS(=O)(=O)O)CC1=CC[C@@H]1[C@@H]2CC[C@]2(C)C(=O)CC[C@@H]12 [PRASTERONE SULFURIC ACID]
Km [5]: 6.6 µM

C[C@]12CC[C@@H]3c4ccc(OS(=O)(=O)O)cc4CC[C@H]3[C@@H]1CC[C@@H]2O
inhibition at 100 µM [6]: 92.9%
